Consider 29 compounds from patent US20120172359A1 (NOVARTIS AG, priority 2010, published 2012).

As a reminder, the IC50 is the concentration that gives 50% inhibition.

Where a name gives a salt, the structure may show the parent alone.

This experiment deals with Human BACE-1 (Homo sapiens, UniProt P56817). The experiment in a line: Test 1: Inhibition of Human BACE-1. The experiment is classed as biochemical. Conditions: Test 1; recombinant BACE-1 (extracellular domain), acetate buffer pH 4.5, 1 hour with test compound at room temperature, fluorescence-quenched peptide substrate; read-out: Bace IC50.
Chain of Human BACE-1 (P56817 46-457 limits assumed): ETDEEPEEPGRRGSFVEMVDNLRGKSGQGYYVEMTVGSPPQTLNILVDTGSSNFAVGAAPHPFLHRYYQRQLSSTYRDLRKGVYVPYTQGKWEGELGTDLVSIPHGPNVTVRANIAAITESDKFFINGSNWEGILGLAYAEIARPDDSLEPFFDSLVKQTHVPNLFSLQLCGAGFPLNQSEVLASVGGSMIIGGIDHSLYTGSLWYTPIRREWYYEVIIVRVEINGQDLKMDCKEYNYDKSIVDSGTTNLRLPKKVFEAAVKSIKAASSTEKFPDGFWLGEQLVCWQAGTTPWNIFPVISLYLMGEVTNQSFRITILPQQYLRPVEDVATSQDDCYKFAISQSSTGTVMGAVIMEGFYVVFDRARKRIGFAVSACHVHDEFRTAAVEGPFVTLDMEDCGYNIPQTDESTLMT
Turning to `NC1=N[C@@](c2cc(NC(=O)c3cnc(OCCF)cn3)ccc2F)(C(F)F)COC1` [Example 136, 5-(2-Fluoro-ethoxy)-pyrazine-2-carboxylic acid [3-((R)-5-amino-3-difluoromethyl-3,6-dihydro-2H-[1,4]oxazin-3-yl)-4-fluoro-phenyl]-amide hydrochloride], the IC50 stood at 130 nM. In the case of `NC1=N[C@@](c2cc(NC(=O)c3ccc(Cl)cn3)ccc2F)(C(F)F)COC1` [Example 137, 5-Chloro-pyridine-2-carboxylic acid [3-((R)-5-amino-3-difluoromethyl-3,6-dihydro-2H-[1,4]oxazin-3-yl)-4-fluoro-phenyl]-amide hydrochloride], the concentration for half-maximal inhibition (IC50) stood at 30 nM. For `NC1=N[C@@](c2cc(NC(=O)c3ccc(OC(F)F)cn3)ccc2F)(C(F)F)COC1` [Example 138, 5-Difluoromethoxy-pyridine-2-carboxylic acid [3-((R)-5-amino-3-difluoromethyl-3,6-dihydro-2H-[1,4]oxazin-3-yl)-4-fluoro-phenyl]-amide hydrochloride], the half-inhibitory concentration (IC50) is 42 nM. In the case of `NC1=N[C@@](c2cc(NC(=O)c3ccc(OCF)cn3)ccc2F)(C(F)F)COC1` [Example 139, 5-Fluoromethoxy-pyridine-2-carboxylic acid [3-((R)-5-amino-3-difluoromethyl-3,6-dihydro-2H-[1,4]oxazin-3-yl)-4-fluoro-phenyl]-amide], the half-inhibitory concentration (IC50) was 75 nM. Consider `NC1=N[C@@](c2cc(NC(=O)c3ncc(Cl)cc3F)ccc2F)(C(F)F)COC1` [Example 140, 5-Chloro-3-fluoro-pyridine-2-carboxylic acid [3-((R)-5-amino-3-difluoromethyl-3,6-dihydro-2H-[1,4]oxazin-3-yl)-4-fluoro-phenyl]-amide], for which the IC50 turned out to be 43 nM. In the case of `NC1=N[C@@](c2cc(NC(=O)c3cnc(Cl)cn3)ccc2F)(C(F)F)COC1` [Example 141, 5-Chloro-pyrazine-2-carboxylic acid [3-((R)-5-amino-3-difluoromethyl-3,6-dihydro-2H-[1,4]oxazin-3-yl)-4-fluoro-phenyl]-amide], the IC50 amounted to 33 nM.

Regarding `Cc1cc(C(=O)Nc2ccc(F)c([C@]3(C(F)F)COCC(N)=N3)c2)n[nH]1` [Example 142, 5-Methyl-1H-pyrazole-3-carboxylic acid [3-((R)-5-amino-3-difluoromethyl-3,6-dihydro-2H-[1,4]oxazin-3-yl)-4-fluoro-phenyl]-amide hydrochloride], the 50% inhibitory concentration (IC50) is 820 nM.

Turning to `Cc1ccc(C(=O)Nc2ccc(F)c([C@]3(C(F)F)COCC(N)=N3)c2)nc1` [Example 143, 5-Methyl-pyridine-2-carboxylic acid [3-((R)-5-amino-3-difluoromethyl-3,6-dihydro-2H-[1,4]oxazin-3-yl)-4-fluoro-phenyl]-amide hydrochloride], the 50% inhibitory concentration (IC50) was 110 nM. For the compound `NC1=N[C@@](c2cc(NC(=O)c3cnc(O)cn3)ccc2F)(C(F)F)COC1` [Example 145, 5-Hydroxy-pyrazine-2-carboxylic acid [3-((R)-5-amino-3-difluoromethyl-3,6-dihydro-2H-[1,4]oxazin-3-yl)-4-fluoro-phenyl]-amide hydrochloride], the IC50 amounted to 340 nM. For the compound `COc1cnc(C(=O)Nc2ccc(F)c([C@]3(C(F)F)COCC(N)=N3)c2)cn1` [Example 146, 5-Methoxy-pyrazine-2-carboxylic acid [3-((R)-5-amino-3-difluoromethyl-3,6-dihydro-2H-[1,4]oxazin-3-yl)-4-fluoro-phenyl]-amide hydrochloride], the half-inhibitory concentration (IC50) came out at 100 nM.

Regarding `Cc1nc(C(=O)Nc2ccc(F)c([C@]3(C(F)F)COCC(N)=N3)c2)cs1` [Example 148, 2-Methyl-thiazole-4-carboxylic acid [3-((R)-5-amino-3-difluoromethyl-3,6-dihydro-2H-[1,4]oxazin-3-yl)-4-fluoro-phenyl]-amide hydrochloride], the IC50 came to 940 nM. On to `Cc1cnc(C(=O)Nc2ccc(F)c([C@]3(C(F)F)COCC(N)=N3)c2)s1` [Example 149, 5-Methyl-thiazole-2-carboxylic acid [3-((R)-5-amino-3-difluoromethyl-3,6-dihydro-2H-[1,4]oxazin-3-yl)-4-fluoro-phenyl]-amide hydrochloride], for which the concentration for half-maximal inhibition (IC50) turned out to be 700 nM. The value for `Cn1ccc(C(=O)Nc2ccc(F)c([C@]3(C(F)F)COCC(N)=N3)c2)n1` [Example 150, 1-Methyl-1H-pyrazole-3-carboxylic acid [3-((R)-5-amino-3-difluoromethyl-3,6-dihydro-2H-[1,4]oxazin-3-yl)-4-fluoro-phenyl]-amide hydrochloride] was 290 nM.

As for `Cn1cc([N+](=O)[O-])c(C(=O)Nc2ccc(F)c([C@]3(C(F)F)COCC(N)=N3)c2)n1` [Example 151, 1-Methyl-4-nitro-1H-pyrazole-3-carboxylic acid [3-((R)-5-amino-3-difluoromethyl-3,6-dihydro-2H-[1,4]oxazin-3-yl)-4-fluoro-phenyl]-amide hydrochloride], the 50% inhibitory concentration (IC50) turned out to be 1200 nM. For `C[C@@]1(c2cc(NC(=O)c3ncc(Cl)cc3N)ccc2F)CO[C@@](C)(C(F)(F)F)C(N)=N1` [Example 153, 3-Amino-5-chloro-pyridine-2-carboxylic acid [3-((3R,6R)-5-amino-3,6-dimethyl-6-trifluoro-methyl-3,6-dihydro-2H-[1,4]oxazin-3-yl)-4-fluoro-phenyl]amide], the IC50 came to 8 nM.

Consider `CC1(c2cc(NC(=O)c3ncc(C(F)(F)F)cc3Cl)ccc2F)N=C(N)COCC1(F)F` (centres unmarked) [Example 154, 3-Chloro-5-trifluoromethyl-pyridine-2-carboxylic acid [3-(3-amino-6,6-difluoro-5-methyl-2,5,6,7-tetrahydro-[1,4]oxazepin-5-yl)-4-fluoro-phenyl]-amide], for which the IC50 is 120 nM. In the case of `COc1cc(Br)cnc1C(=O)Nc1ccc(F)c(C2(C)N=C(N)COCC2(F)F)c1` (centres unmarked) [Example 155, 5-Bromo-3-methoxy-pyridine-2-carboxylic acid [3-(3-amino-6,6-difluoro-5-methyl-2,5,6,7-tetrahydro-[1,4]oxazepin-5-yl)-4 fluoro-phenyl]-amide], the IC50 is 180 nM. Then `CC1(c2cc(NC(=O)c3ccc(C#N)cn3)ccc2F)N=C(N)COCC1(F)F` (centres unmarked) [Example 156, 5-Cyano-pyridine-2-carboxylic acid [3-(3-amino-6,6-difluoro-5 methyl-2,5,6,7-tetrahydro[1,4]oxazepin-5-yl)-4 fluoro-phenyl]-amide], with 34 nM; and `NC1=N[C@@](c2cc(NC(=O)c3cc4cncnc4[nH]3)ccc2F)(C(F)F)COC1` [Example 157, 7H-Pyrrolo[2,3-d]pyrimidine-6-carboxylic acid [3-((R)-5-amino-3-difluoromethyl-3,6-dihydro-2H-[1,4]oxazin-3-yl)-4-fluoro-phenyl]-amide], with 5200 nM.

As for `COCCOc1cnc(C(=O)Nc2ccc(F)c([C@]3(C(F)F)COCC(N)=N3)c2)c(N)n1` [Example 158, 3-Amino-5-(2-methoxy-ethoxy)-pyrazine-2-carboxylic acid [3-((R)-5-amino-3-difluoromethyl-3,6-dihydro-2H-[1,4]oxazin-3-yl)-4-fluoro-phenyl]amide], the IC50 came to 18 nM.

For `CCc1ccc(C(=O)Nc2ccc(F)c([C@]3(C(F)F)COCC(N)=N3)c2)nc1` [Example 159], the IC50 is 130 nM.

As for `NC1=N[C@@](c2cc(NC(=O)c3ncc(Cl)cc3N)ccc2F)(C(F)F)COC1` [Example 160, 3-Amino-5-chloro-pyridine-2-carboxylic acid [3-((R)-5-amino-3-difluoromethyl-3,6-dihydro-2H-[1,4]oxazin-3-yl)-4-fluoro-phenyl]-amide], the IC50 turned out to be 12 nM. Then `COc1cnc(C(=O)Nc2ccc(F)c([C@]3(C(F)F)COCC(N)=N3)c2)c(Cl)c1` [Example 161, 3-Chloro-5-methoxy-pyridine-2-carboxylic acid [3-((R)-5-amino-3-difluoromethyl-3,6-dihydro-2H-[1,4]oxazin-3-yl)-4-fluoro-phenyl]-amide], with 66 nM. Consider `NC1=N[C@@](c2cc(NC(=O)c3ccc(=O)[nH]c3)ccc2F)(C(F)F)COC1` [Example 162, 6-Oxo-1,6-dihydro-pyridine-3-carboxylic acid [3-((R)-5-amino-3-difluoromethyl-3,6-dihydro-2H-[1,4]oxazin-3-yl)-4-fluoro-phenyl]-amide], for which the IC50 worked out at 8500 nM. For the compound `NC1=N[C@@](c2cc(NC(=O)c3cc4cccn4cn3)ccc2F)(C(F)F)COC1` [Example 163, Pyrrolo[1,2-c]pyrimidine-3-carboxylic acid [3-((R)-5-amino-3-difluoromethyl-3,6-dihydro-2H-[1,4]oxazin-3-yl)-4-fluoro-phenyl]-amide], the half-maximal inhibitory concentration (IC50) stood at 680 nM.

As to `NC1=N[C@@](c2cc(NC(=O)c3ncc(Br)cc3N)ccc2F)(C(F)F)COC1` [Example 165, 3-Amino-5-bromo-pyridine-2-carboxylic acid [3-((R)-5-amino-3-difluoromethyl-3,6-dihydro-2H-[1,4]oxazin-3-yl)-4-fluoro-phenyl]-amide], the IC50 was determined as 8 nM.

Consider `CCn1ccnc1C(=O)Nc1ccc(F)c([C@]2(C(F)F)COCC(N)=N2)c1` [Example 166, 1-Ethyl-1H-imidazole-2-carboxylic acid [3-((R)-5-amino-3-difluoromethyl-3,6-dihydro-2H-[1,4]oxazin-3-yl)-4-fluoro-phenyl]amide], for which the IC50 turned out to be 1200 nM. Take `C#CCOc1cnc(C(=O)Nc2ccc(F)c([C@]3(C(F)F)COCC(N)=N3)c2)cn1` [Example 167, 5-Prop-2-ynyloxy-pyrazine-2-carboxylic acid [3-((R)-5-amino-3-difluoromethyl-3,6-dihydro-2H-[1,4]oxazin-3-yl)-4-fluoro-phenyl]-amide]: the IC50 was 3 nM.

On to `Cc1nc(C(=O)Nc2ccc(F)c([C@]3(C(F)F)COCC(N)=N3)c2)c(N)o1` [Example 168, 5-Amino-2-methyl-oxazole-4-carboxylic acid [3-((R)-5-amino-3-difluoromethyl-3,6-dihydro-2H-[1,4]oxazin-3-yl)-4-fluoro-phenyl]-amide], for which the IC50 was found to be 260 nM.
